# Experimental data from patent US8512970B2, “Rapid bioluminescence detection assay” (The Secretary of State for Health, priority 2009, dated 2013).
# pIC50: −log10 of the molar value. “Also recorded” adds a separate entry of the source. Where a name gives a salt, the structure may show the parent alone.
# Columns and labels:
# [1] = target: T1, yeast AK (AK from Saccharomyces cerevisiae) (Saccharomyces cerevisiae, UniProt P07170); assay: Distinguishing reporter adenylate kinases from yeast adenylate kinase (FIG. 7B); type: biochemical
# T1 construct: purchased Sigma
# T1 sequence (P07170 whole entry): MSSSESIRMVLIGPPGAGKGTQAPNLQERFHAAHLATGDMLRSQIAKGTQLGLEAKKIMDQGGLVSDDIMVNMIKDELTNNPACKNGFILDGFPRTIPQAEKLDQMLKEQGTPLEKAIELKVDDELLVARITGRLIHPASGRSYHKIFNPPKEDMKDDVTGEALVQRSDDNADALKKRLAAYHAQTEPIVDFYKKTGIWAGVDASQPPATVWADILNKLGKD
# [2] = target: luciferase (Photinus pyralis, UniProt P08659); assay: Effect of inhibitor on luciferase; type: biochemical
# Chain of luciferase (P08659 whole entry, species assumed): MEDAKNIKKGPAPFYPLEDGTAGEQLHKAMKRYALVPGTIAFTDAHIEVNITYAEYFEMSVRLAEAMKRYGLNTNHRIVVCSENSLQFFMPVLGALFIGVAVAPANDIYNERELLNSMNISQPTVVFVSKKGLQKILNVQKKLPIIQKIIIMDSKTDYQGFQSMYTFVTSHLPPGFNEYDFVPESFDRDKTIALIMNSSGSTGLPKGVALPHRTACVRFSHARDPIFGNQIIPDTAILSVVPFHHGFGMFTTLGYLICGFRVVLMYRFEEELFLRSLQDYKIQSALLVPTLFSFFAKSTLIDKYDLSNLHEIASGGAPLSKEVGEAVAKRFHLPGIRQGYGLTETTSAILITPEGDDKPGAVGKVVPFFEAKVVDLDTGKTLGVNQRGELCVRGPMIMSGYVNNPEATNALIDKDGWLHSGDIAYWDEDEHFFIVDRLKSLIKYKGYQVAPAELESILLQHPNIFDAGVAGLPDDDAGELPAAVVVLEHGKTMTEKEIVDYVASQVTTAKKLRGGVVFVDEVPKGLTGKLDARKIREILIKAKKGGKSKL
# [3] = target: adenylate kinase from S. acidocaldarius (Sulfolobus acidocaldarius, UniProt P35028); assay: Inhibition of reporter adenylate kinase by Ap5a, ATP detected with luciferin/luciferase
# Chain of adenylate kinase from S. acidocaldarius (P35028 whole entry): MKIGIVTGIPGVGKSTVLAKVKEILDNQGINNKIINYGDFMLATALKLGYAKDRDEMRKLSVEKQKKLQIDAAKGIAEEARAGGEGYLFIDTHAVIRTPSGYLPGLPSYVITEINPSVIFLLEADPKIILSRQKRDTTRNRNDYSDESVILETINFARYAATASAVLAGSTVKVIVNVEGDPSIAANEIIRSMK
# Method: (§1) The reporter adenylate kinases from S. acidocaldarius or T. maritima were purified as described previously. Rabbit myokinase (muscle adenylate kinase) was obtained from Sigma. 100 ng of each enzyme was incubated with the inhibitor at the concentrations shown in reaction buffer (15 mM MgAc, 10 mM tris, 1 mM EDTA pH 7.75) for 5 minutes. ADP was added to a final concentration of 70 μM and the reaction incubated before addition of luciferin and luciferase.
# [4] = target: T2, adenylate kinase from T. maritima (Thermotoga maritima, UniProt Q9X1I8); assay: as above
# T2 sequence (Q9X1I8 1-220): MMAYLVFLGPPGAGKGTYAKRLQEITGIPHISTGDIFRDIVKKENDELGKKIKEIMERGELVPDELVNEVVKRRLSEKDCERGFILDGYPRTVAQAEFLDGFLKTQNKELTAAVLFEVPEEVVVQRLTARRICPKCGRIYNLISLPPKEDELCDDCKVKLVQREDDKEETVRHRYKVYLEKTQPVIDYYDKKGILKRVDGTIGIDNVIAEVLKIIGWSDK
# Method: as §1
# [5] = target: T3, Rabbit myokinase (muscle adenylate kinase) (Oryctolagus cuniculus, UniProt P00569); assay: Inhibition of non-reporter (endogenous) tissue kinase by Ap5a, ATP detected with luciferin/luciferase
# T3 sequence (P00569 1-194): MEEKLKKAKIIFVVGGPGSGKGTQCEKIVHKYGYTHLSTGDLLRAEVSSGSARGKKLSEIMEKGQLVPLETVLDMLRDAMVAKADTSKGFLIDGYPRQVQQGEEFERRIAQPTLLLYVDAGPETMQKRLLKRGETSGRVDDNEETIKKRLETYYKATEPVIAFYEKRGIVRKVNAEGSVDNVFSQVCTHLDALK
# Method: as §1
Molecule,distinguishing bacterial and archaeal reporter adenylate kinases from enzyme of fungal origin (yeast AK) [1],effect on the activity of the luciferase [2],pIC50 [3],pIC50 [4],pIC50 [5]
"Nc1ncnc2c1ncn2[C@@H]1O[C@H](COP(=O)(O)OP(=O)(O)OP(=O)(O)OP(=O)(O)OC[C@H]2O[C@@H](n3cnc4c(N)ncnc43)[C@H](O)[C@@H]2O)[C@@H](O)[C@H]1O [Ap4A, Diadenosine tetraphosphate]",do not allow for an assay to distinguish,,,,
"Nc1ncnc2c1ncn2[C@@H]1O[C@H](COP(=O)(O)OP(=O)(O)OP(=O)(O)OP(=O)(O)OP(=O)(O)OC[C@H]2O[C@@H](n3cnc4c(N)ncnc43)[C@H](O)[C@@H]2O)[C@@H](O)[C@H]1O [Ap5A, Diadenosine pentaphosphate pentasodium salt]",can still be used to distinguish; also recorded: discriminates reporter kinase from non-reporter kinase,does not have a detrimental effect,4.98,5.37,7.22
Diadenosine hexaphosphate [Ap6A],do not allow for an assay to distinguish,,,,
